Assay results from ChEMBL document CHEMBL5724696, “Autophagy assay results for EUbOPEN Chemogenomics Library” (2024).
“And” between values parts separate entries of the source, which are not always exact repeats. Equal values may be shown once.

Columns and labels:
U2OS [1] = assay: (§1) Here: values are normalized to the positive (DMSO; basel flux = defined as 100% suppression) and negative (250nM Torin1; mTOR inhibitor; maximal inducer of autophagy defined as 0% suppression) control compounds and represented as % of ER-phagy suppression. […] The impact of autophagy induction on cells is complex and depends on the affected target. […] Of note, treatment concentrations may be sub-optimal for specific compounds, leading to false negative annotations.; format: functional, Homo sapiens; details: Compound Concentration 1 uM, Culturing Media DMEM, 1 % Penicillin/Streptomycin, 10% Fetal bovin serum Add-On: blasticidin, Screening Media Control DMEM, 10% Fetal bovin serum Add-On: 1 µg/ml Doxycyclin, Screening Media Samples DMEM
U2OS [2] = assay: as §1; format: functional, Homo sapiens; details: Compound Concentration 1 uM, Culturing Media DMEM, 1 % Penicillin/Streptomycin, 10% Fetal bovin serum Add-On: blasticidin, Screening Media Control DMEM, 10% Fetal bovin serum Add-On: 1 µg/ml Doxycyclin, Screening Media Samples DMEM; remark: listed apart in the source
[3] = Timepoint 12 hours, 10% Fetal bovin serum Add-On: 1 µg/ml Doxycyclin 250nM Torin1
[4] = Timepoint 24 hours, 10% Fetal bovin serum Add-On: 1 µg/ml Doxycyclin 250nM Torin1
[5] = Timepoint 36 hours, 10% Fetal bovin serum Add-On: 1 µg/ml Doxycyclin 250nM Torin1
[6] = Timepoint 54 hours, 10% Fetal bovin serum Add-On: 1 µg/ml Doxycyclin 250nM Torin1
[7] = Timepoint 60 hours, 10% Fetal bovin serum Add-On: 1 µg/ml Doxycyclin 250nM Torin1
[8] = Timepoint 12 hours, 10% Fetal bovin serum Add-On: 1 µg/ml Doxycyclin 250nM Torin1, 12 h, 1 µM
[9] = Timepoint 24 hours, 10% Fetal bovin serum Add-On: 1 µg/ml Doxycyclin 250nM Torin1, 24 h, 1 µM
[10] = Timepoint 36 hours, 10% Fetal bovin serum Add-On: 1 µg/ml Doxycyclin 250nM Torin1, 36 h, 1 µM
[11] = Timepoint 60 hours, 10% Fetal bovin serum Add-On: 1 µg/ml Doxycyclin 250nM Torin1, 60 h, 1 µM
[12] = Timepoint 54 hours, 10% Fetal bovin serum Add-On: 1 µg/ml Doxycyclin 250nM Torin1, 54 h, 1 µM

| SMILES | ER-phagy suppression (U2OS [1]; [3]) | ER-phagy suppression (U2OS [1]; [4]) | ER-phagy suppression (U2OS [1]; [5]) | ER-phagy suppression (U2OS [1]; [6]) | ER-phagy suppression (U2OS [2]; [3]) | ER-phagy suppression (U2OS [2]; [4]) | ER-phagy suppression (U2OS [2]; [5]) | ER-phagy suppression (U2OS [2]; [7]) | ER-phagy suppression (U2OS [1]; [8]) | ER-phagy suppression (U2OS [1]; [9]) | ER-phagy suppression (U2OS [1]; [10]) | ER-phagy suppression (U2OS [2]; [8]) | ER-phagy suppression (U2OS [2]; [10]) | ER-phagy suppression (U2OS [2]; [11]) | ER-phagy suppression (U2OS [1]; [12]) | ER-phagy suppression (U2OS [2]; [9]) |
| --- | --- | --- | --- | --- | --- | --- | --- | --- | --- | --- | --- | --- | --- | --- | --- | --- |
| CC1=C(C#N)C(c2ccc3[nH]nc(C)c3c2)C(C#N)=C(C)N1 [BAY-474] | -13.4419% | -18.7669% | -19.5327% | -10.8689% | -4.1838% | 7.362% | 15.2848% | 16.6513% |  |  |  |  |  |  |  |  |
| Cc1cc(C)c(-n2ccn3nc(-c4cccnc4)cc23)cc1NC(=O)c1cc(C#N)cc(S(F)(F)(F)(F)F)c1 [BAY-826] | 21.4229% | 9.146% | 4.6% | 19.8518% | 10.7254% | 6.3786% | 7.428% | 6.537% |  |  |  |  |  |  |  |  |
| CC1=C(C#N)[C@@H](c2ccc3[nH]nc(C)c3c2)C(C#N)=C(c2ccc(Cl)cc2)N1 [BAY-827] | -1.516% | -21.7023% | -24.9956% | -14.7052% | -21.2779% | -26.9283% | -30.4241% | -34.9366% |  |  |  |  |  |  |  |  |
| CNCc1ccc(-c2cc(-c3nc(-c4ccc(S(=O)(=O)C(C)C)cc4)cnc3N)on2)cc1 [BERZOSERTIB] | 54.7938% | 32.6309% | 31.7276% | 38.9692% | 117.5% | 96.408% | 85.8575% | 85.0285% |  |  |  |  |  |  |  |  |
| C[C@@H]1COCCN1c1cc(C2([S@](C)(=N)=O)CC2)nc(-c2cc[nH]c3nccc2-3)n1 [CERALASERTIB] | 5.203% | -10.6428% | -11.7869% | -16.7098% | -20.381% | -14.6462% | -13.688% | -10.6655% |  |  |  |  |  |  |  |  |
| CNC(=O)c1ccc(Nc2ncc(C(F)(F)F)c(NCc3nccnc3N(C)S(C)(=O)=O)n2)cc1 [DEFACTINIB] |  |  |  |  |  |  |  |  | 6.334% and 17.6982% | -6.042% and 9.811% | -8.211% and 10.8271% | -10.5841% and -8.687% | -22.8017% and 1.862% | -7.812% and 1.51% |  |  |
| CCN(CCO)CCCOc1ccc2c(Nc3cc(CC(=O)Nc4cccc(F)c4)[nH]n3)ncnc2c1 [DEFOSBARASERTIB] |  |  |  |  |  |  |  |  | -1.417% and 3.579% | -12.3988% and -4.272% | -12.8875% and -11.7769% |  |  | 14.0476% and -1.761% | -17.4995% and -20.4042% |  |
| CN1CCN(Cc2ccc(Nc3ncc(Cl)c(Nc4ccccc4S(=O)(=O)N(C)C)n3)cc2)CC1 [DUBERMATINIB] | -2.878% | -1.86% | 7.295% | 21.9101% | -20.0629% | 4.178% | 12.5384% | 29.2244% |  |  |  |  |  |  |  |  |
| Cn1cc(C2=C(c3cn(C4CCN(Cc5ccccn5)CC4)c4ccccc34)C(=O)NC2=O)c2ccccc21 [ENZASTAURIN] | 5.0599% | -2.39% | -11.3748% | -3.56% | 35.0144% | 19.4915% | 15.6229% | 9.495% |  |  |  |  |  |  |  |  |
| C[C@H](NC(=O)Nc1cc2[nH]ncc2c(CO)n1)c1ccccn1 [ERKi-NC] | 16.3207% | -4.124% | -11.6627% | -9.3851% | -23.4889% | -22.8439% | -26.5362% | -20.3879% |  |  |  |  |  |  |  |  |
| C[C@@H](NC(=O)Nc1cc2[nH]ncc2c(CO)n1)c1ccccc1 [ERKi] | 6.504% | -3.07% | -4.694% | -0.09872% | -20.6264% | 1.384% | -7.522% | -12.4094% |  |  |  |  |  |  |  |  |
| CN(C)CCCn1cc(C2=C(c3c[nH]c4ccccc34)C(=O)NC2=O)c2ccccc21 [GF-109203] | 134.318% | 101.39% | 90.0252% | 89.0171% | 176.072% | 134.347% | 114.591% | 104.135% |  |  |  |  |  |  |  |  |
| O=C(O)c1ccc(-c2c[nH]c3ncc(-c4ccccc4)cc23)cc1C1CCCC1 [GSK-650394] | 10.3251% | -3.71% | -12.9295% | -11.6174% | -3.529% | -12.5069% | 3.383% | 9.397% |  |  |  |  |  |  |  |  |
| O=c1cc(-c2cccc3c2Sc2ccccc2S3)oc(N2CCOCC2)c1 [KU-55933] | 6.867% | -4.052% | -12.4961% | -6.9587% | 55.4841% | 58.138% | 50.8459% | 57.1444% |  |  |  |  |  |  |  |  |
| Cc1cnc(-c2cnc(NCCNc3ccc(C#N)cn3)nc2-c2ccc(Cl)cc2Cl)[nH]1 [LADUVIGLUSIB] | 16.4928% | 17.774% | 23.5271% | 35.0421% | 40.8879% | 29.9628% | 22.9027% | 26.8731% |  |  |  |  |  |  |  |  |
| O=C(O)[C@]1(Cc2cccc(Nc3nccs3)n2)CC[C@@H](Oc2cccc(Cl)c2F)CC1 [MK-5108] |  |  |  |  |  |  |  |  | -21.8455% and -0.3871% | -36.5962% and -17.27% | -35.461% and -24.0375% | 0.5036% and -6.3832% | -0.3659% and -12.8084% | 7.072% and -14.3125% | -31.7232% and -12.4423% | -3.155% and -11.7886% |
| C[C@@H]1CN(c2cc(-c3nn(C)c4ccc(OC5(C)CC5)cc34)ncn2)C[C@H](C)O1 [MLi-2-NC] | 6.526% | -15.2571% | -21.814% | -27.1974% | 30.6608% | 32.7197% | 14.6999% | 6.822% |  |  |  |  |  |  |  |  |
| C[C@@H]1CN(c2cc(-c3n[nH]c4ccc(OC5(C)CC5)cc34)ncn2)C[C@H](C)O1 [MLi-2] | 2.807% | -15.8401% | -22.331% | -20.0591% | 9.792% | 2.978% | -16.0797% | -15.9794% |  |  |  |  |  |  |  |  |
